Source: patent US8846619B2, “Artificial oxygen transport protein” (The Trustees of the University of Pennsylvania, priority 2009, dated 2014)
Like-named read-outs stand apart in the source and are kept apart here. Ends that are not written are not given here.

What was measured:
[1] = O2 binding kinetics and oxy-ferrous heme formation/stability (stopped-flow; low-temperature CO/O2 ligand exchange); details: for stabilization of the oxy-ferrous heme: effect of loop configuration; for oxy-ferrous heme yield: −15° C., exposed to CO, then illuminated to exchange ligand for O2; for O2 binding / oxy-ferrous heme formation (in words): reduced (ferrous) heme protein with O2
Protocol: (§1) Predominantly mono-exponential binding kinetics of O2 and CO with the ferrous heme B in Construct 6 were followed spectroscopically in rapid stopped-flow mixing over gas concentrations from 2% to 50% saturation at 15° C. using an Olis RSM 1000 spectrometer (Bogart, Ga.) that scans both the alpha band and Soret band absorptions 1,000 times a second, followed by SVD analysis of the kinetic components. The dissociation rate of the CO complex was determined by competition with ferricyanide using a range of ferricyanide concentrations according to the ferric heme trapping method described previously.
Preparations of ferrous heme synthetic proteins in CO saturated 30% ethylene glycol borate buffer at pH 9.0 were stable to ligand exchange on a timescale of several minutes in the dark at −15° C. This allowed spectra such as those shown in FIG. 2 to be prepared by re-equilibration with O2 or O2/CO gas mixtures, followed by photolysis by halogen lamp illumination for several seconds to initiate rapid O2 binding, as described previously.
In fact, none of the artificial hemes proteins examined above were able to bind this gas stably at room temperature. […] Constructs 2, 3, 4 and 5 all include the glutamate-based helical strain, which weakens the histidine ligation and allows competition from other ligands. By first exposing these heme proteins to CO and then illuminating at a low temperature to initiate ligand exchange for O2, as was done previously with cytochrome oxidase, each formed an oxy-ferrous heme at near 100% yield at −15° C. The probable reason for room temperature instability was the access of water and protons to the heme-binding site, which facilitates electron transfer from ferrous heme to oxygen. This is clear from mutant studies of globins and the relative stability of the oxy-ferrous heme in chemical systems in water-free solvents.

[2] = Heme binding to the constructs; details: two-heme variants, read-out: heme binding affinities
[3] = Hydrogen isotope (H/D) exchange protection by NMR; type: physicochemical; details: pH 7 and 25° C.
From the text: To engineer water exclusion, the potentially culpable protein motion was constrained. […] Indeed, Construct 2 could be modified to introduce large-scale syn-anti flipping. To constrain motion, the loops were reconfigured to link the helices across the most mobile interface. This also allowed the loops to be linked into a monomeric “candelabra” structure, further constraining motion (Construct 6 in FIG. 1). NMR confirmed the water-restricting effects of loop reconfiguration and monomerization. Hydrogen isotope (H/D) analysis of hydrogen exchange protection factors of Constructs 4 and 6 at pH 7 and 25° C.

[4] = literature value, cited from earlier work
[5] = literature value, cited from earlier work; remark: listed apart in the source
[6] = literature value; cited from earlier work
[7] = Potentiometric titration (oxidation-reduction midpoint potential); type: physicochemical
[8] = CO binding and release kinetics (stopped-flow mixing, flash photolysis, ferricyanide competition); details: stopped-flow with CO
Protocol: as §1
CO rebinding after photolysis by a frequency-doubled YAG laser at 532 nm, with a ˜1-ns pulse width (FIG. 3C), was multi-exponential, a characteristic signature of human neuroglobins. Detailed analysis of time-resolved spectra in the flash experiments was consistent with a rapid exponential phase due to a change in pentacoordinate heme conformation (FIG. 3B), similar to that reported for myoglobin [46]. […]
Saturation of the observed CO binding rate allowed estimates of the opening and closing rates. […] Table 1 presents the kinetic constants (also shown in FIG. 3A) and equilibrium binding constants that have been determined for Construct 6 and contrasts them with several natural oxygen-binding proteins. […]

[9] = heme B, cited from earlier work
[10] = not in parentheses, read-out: KdCO
[11] = not in parentheses, read-out: KdO2

In the case of “Construct 5: cystine derivative of SEQ ID NO:9 (CGGGEIWKQHEDALQKFEDALNQFEELKQL; also: cystine derivative)”, the “stabilization of the oxy-ferrous heme” value [1] is reported as “not to be stabilized” and the oxy-ferrous heme yield [1] is reported as roughly 100%.

In the case of “CGGGEIWKQFEEALKKLFAFFFILPFIIMAIAMVHLLFLFGEGL [Construct 15, AP6 with histidines at positions 10 and 21 mutated to phenylalanine]”, the Kd ([2]; tighter site) is reported as 100 nM and the Kd ([2]; weaker site) is reported as 4500 nM.

For “Construct 4: cystine derivative of SEQ ID NO:8 (CGGGEIWKQHEEALKKFEEALKQFEELKKL; also: cystine derivative)”, the oxy-ferrous heme yield [1] was roughly 100% and the “time to complete water-mediated proton exchange” value [3] was no more than 15 min.

In the case of Ascaris haemoglobin, the kCO off [4] is given as 0.018 s⁻¹, the kCO on ([4]; not in parentheses) is given as 200000 M⁻¹ s⁻¹ and the Kd [4, 10] is given as 90 nM. The kO2 off [5] was 0.004 s⁻¹, the KdO2/KdCO ([5]; not in parentheses) was 0.03 and the kO2 on ([5]; not in parentheses) was 1.5e+06 M⁻¹ s⁻¹. For the same molecule, the Kd [5, 11] was 3 nM.

Molecule “Construct 3: cystine derivative of SEQ ID NO:7 (CGGGEIWKLHEEFLKKFEELLKLHEERLKKL; also: cystine derivative)” has an oxy-ferrous heme yield [1] of roughly 100%.

For Human haemoglobin, the kCO off [4] is listed as 0.009 s⁻¹, the kCO on ([4]; not in parentheses) is listed as 2.2e+06 M⁻¹ s⁻¹ and the Kd [4, 10] is listed as 4 nM. The kO2 off [5] was 15 s⁻¹, the KdO2/KdCO ([5]; not in parentheses) was 190 and the kO2 on ([5]; not in parentheses) was 1.9e+07 M⁻¹ s⁻¹. For the same molecule, the Kd [5, 11] was 770 nM.

With “CGGGEIWKQHEEALKKLFAFFFILPFIIMAIAMVFLLFLFGEGL [Construct 13]” the “O2 binding / oxy-ferrous heme formation (in words)” value [1] was “able to bind O2”, the Kd ([2]; tighter site) was 50 to 200 nM and the Kd ([2]; weaker site) was 1000 to 4000 nM.

In the case of “Construct 2: cystine derivative of SEQ ID NO:6 (CGGGELWKLHEELLKKFEELLKLHEERLKKL; also: cystine derivative)”, the “O2 binding / oxy-ferrous heme formation (in words)” value [1] is reported as “proceeded directly and rapidly to the oxidized form” and the oxy-ferrous heme yield [1] is reported as roughly 100%.

For Myoglobin, the kCO off [4] is given as 0.019 s⁻¹, the kCO on ([4]; not in parentheses) is given as 500000 M⁻¹ s⁻¹ and the Kd [4, 10] is given as 37 nM. For the same molecule, the kO2 off [5] was 12 s⁻¹, the KdO2/KdCO ([5]; not in parentheses) was 23 and the kO2 on ([5]; not in parentheses) was 1.4e+07 M⁻¹ s⁻¹. For the same molecule, the Kd [5, 11] was 860 nM.

For Micro-peroxidase, the kCO off [4] is listed as 0.01 s⁻¹, the kCO on ([4]; not in parentheses) is listed as 2e+07 M⁻¹ s⁻¹ and the Kd [4, 10] is listed as 0.5 nM.

With “CGGGEIWKQFEEALKKLFAFHFILPFIIMAIAMVFLLFLFGEGL [Construct 14, AP6 with histidines at positions 10 and 35 mutated to phenylalanine]” the Kd ([2]; tighter site) was 200 to 500 nM and the Kd ([2]; weaker site) was 1000 to 3000 nM.

B1: Neuroglobin (protein, UniProt Q9NPG2 1-151, looked up)
Neuroglobin: MERPEPELIRQSWRAVSRSPLEHGTVLFARLFALEPDLLPLFQYNCRQFSSPEDCLSSPEFLDHIRKVMLVIDAAVTNVEDLSSLEEYLASLGRKHRAVGVKLSSFSTVGESLLYMLEKCLGPAFTPATRAAWSQLYGAVVQAMSRGWDGE
In the case of B1, the kCO off [4] is given as 0.014 s⁻¹, the “kCO on (apparent)” value ([4]; in parentheses: apparent) is given as “(0.15) μM^−1s^−1” and the Kd ([4]; in parentheses: apparent, read-out: KdCO (apparent)) is given as 93 nM. The kCO on ([4]; not in parentheses) was 6.5e+07 M⁻¹ s⁻¹, the Kd [4, 10] was 0.21 nM and the kO2 off [5] was 0.8 s⁻¹. For the same molecule, the “KdO2/KdCO (apparent)” value ([5]; in parentheses: apparent) was “(15)”, the “kO2 on (apparent)” value ([5]; in parentheses: apparent) was “(0.56) μM^−1s^−1” and the Kd ([5]; in parentheses: apparent, read-out: KdO2 (apparent)) was 1400 nM. For the same molecule, the kO2 on ([5]; not in parentheses) was 2.5e+08 M⁻¹ s⁻¹, the Kd [5, 11] was 3.2 nM and the kHis off [6] was 4.5 s⁻¹. For the same molecule, the kHis on [6] was 2,000 s^−1.

B2: Construct 7: SEQ ID NO:11; single chain four-helix bundle peptide (protein)
chain: GMTPEQIWKQHEDALQKFEDALNQFEELKQLGGSGSGSGGEIWKQHEDALQKFEDALNQFEELKQLGGSGGSGGSGGEIWKQHEDALQKFEDALNQFEELKQLGGSGSGSGGEIWKQHEDALQKFEDALNQFEELKQL
In the case of B2, the “O2 binding / oxy-ferrous heme formation (in words)” value [1] is reported as “retained the O2 binding functionality of Construct 6”.

B3: Construct 10: SEQ ID NO:14; single chain four-helix bundle with CXXCH insert, covalently bound heme C (protein)
chain: GMTPEQIWKQHEDALQKFEDALNQFEELKQLGGSGSGSGGEICKCHEDALQKFEDALNQFEELKQLGGSGGSGGSGGEIWKQHEDALQKFEDALNQFEELKQLGGSGSGSGGEIWKQHEDALQKFEDALNQFEELKQL
modifications: covalently bound heme C
For B3, the “O2 binding / oxy-ferrous heme formation (in words)” value [1] was “bound molecular oxygen” and the “Em (midpoint potential)” value ([7]; covalently bound c-type heme, pH 9) was −232 mV.

B4: Construct 6: cystine derivative of SEQ ID NO:1; four-helix bundle oxygen transport protein (protein)
chain: GEIWKQHEDALQKFEEALNQFEDLKQLGGSGCGSGGEIWKQHEDALQKFEEALNQFEDLKQL
modifications: cystine derivative
notes: four-helix bundle oxygen transport protein
With B4 the “half time of carboxy-ferrous heme formation” value [8] was 400 ms, the “stability of carboxy-ferrous heme species” value [8] was “indefinitely stable” and the “O2 on-rate compared with human neuroglobin” value [1] was roughly 100 times slower. For the same molecule, the “net discrimination favoring O2 binding over CO binding” value [1] was “tenfold”, the “stabilization of the oxy-ferrous heme” value [1] was “stabilized by looping together helices not linked by heme” and the “persistence of oxy-ferrous heme A before electron transfer” value ([1]; heme A) was “about half a minute”. The “duration of stability of the oxy-ferrous state” value ([1]; heme B, before electron transfer from ferrous heme to O2) was “tens of seconds”, the “O2 binding / oxy-ferrous heme formation (in words)” value [1] was “transformation of the reduced heme to the oxy-ferrous state” and the “oxidation-reduction midpoint potential at pH 8 (Em8)” value ([7]; bound heme A, pH 8, versus normal hydrogen electrode (NHE)) was −100 mV. The “Em8 of bound heme A more positive than heme B” value ([7]; heme A versus heme B) was “about 200 mV”, the “timescale of exchange of core residue backbone amides” value [3] was “several hours” and the Kd ([9]; first heme, read-out: dissociation constant (Kd) for binding of the first heme) was less than 1 nM. For the same molecule, the Kd ([9]; second heme, read-out: dissociation constant (Kd) for binding of the second heme) was 50 nM.
